Assay results as given in patent US4088778A, “Method for the treatment of hypertension” (priority 1975, dated 1978).

Key:
Acute toxicity on rats = type: in vivo; settings: mice and rats, maximum amount that can be administered
Excerpt: Toxicities of TN and TA will now be described.

[1] = Teratogenetic property test; type: in vivo, pregnant mice or pregnant rats; settings: orally, 100 to 1200 mg/Kg
Excerpt: (C) Teratogenetic Property Test:

[2] = Hypotensive effect on experimental hypertension caused by DOCA; type: in vivo, male wistar rats
Experimental: (A) Hypotensive effect on experimental hypertension caused by administration of desoxycorticosterone (hereinafter referred to as "DOCA"):
Right kidneys were removed from 6-week-old male wistar rats, and a 1% aqueous solution of sodium chloride was given as drinking water and 12.5 mg/Kg of DOCA was intramuscularly injected every week. The change of the blood pressure was examined over a period of 6 weeks.
48 rats, each having one kidney removed, were divided into 6 groups, each consisting of 8 rats, and each group was placed in a cage. With respect to each group, a gum arabic solution was administered to 2 rats as non-administered control animals. 20 mg/Kg of TN was administered once a day to each of two rats among the remaining 6 rats, and 100 mg/Kg of TN was administered once a day to each of two rats among the remaining 4 rats. 88 mg/Kg of TA was administered once a day to each of the remaining two rats. TN and TA were administered in the form of a suspension in gum arabic. The blood pressure was measured by a Shimazu type systolic pressure continuous recording apparatus detecting pulse waves of rats taken in a thermostat fixed box maintained at 30° C.

[3] = Clinical Test I, double blind: blood pressure; type: in vivo, human patients; settings: for Maximum Blood Pressure in Hypertensives, Average Value ± S.D. / Maximum Blood Pressure, Average Value±S.D.: in mmHg (unit assumed)
Experimental: 94 patients of hypertension or arteriosclerosis having subjective symptoms were tested, and some of them suffered from complications such as ischemia heart disease, hypertensive heart disease and encephalomalacia.
As the active drug, there were employed hard capsules, each containing 100 mg of TN.
Two capsules were orally administered at one time, and the administration was conducted three times a day after eating. The period of the administration was principally 4 weeks or 6 weeks. During this period, the administration was performed continuously. Combined administration of drugs having the same function as that of TN (vitamin E drugs, nicotinic acid, its derivatives and peripheral vasolidators) was prohibited. Drugs which had been continuously administered since before the start of the administration of TN were similarly administered according to the disease case and symptom, and change of the prescription during the test was avoided.
With respect to data collected separately in the TN group and the P group, the significant difference was examined according to the statistical method.

[4] = Clinical Experiment II, double blind: blood pressure; type: in vivo, human patients; settings: for Maximum Pressure, Average Value, all patients / Maximum Pressure, Average Value, patients of hypertension / Maximum Pressure, Average Value, no hypotensive agent in combination with TN / Maximum Pressure, Average Value, hypotensive agent administered in combination with TN: in mmHg (unit assumed)
Experimental: Results of the clinical experiment conducted according to the double blind method in a different hospital will now be described.
(§1) 75 patients of hypertension or arteriosclerosis having subjective symptoms were tested. Some of them suffered from complications such as ischemia heart disease and cerebral thrombosis. They are detailed in Table 11.
(§2) Two capsules were administered at one time, and the administration was conducted 3 times per day after eating. The duration of the continuous administration was 4 weeks. Combined use of drugs having the same functions as those of TN (vitamin E drugs, nicotinic acid, its derivatives and peripheral vasolidators) and minor tranquilizers was prohibited.
(a) Results of Blood Pressure Test: Variations of the blood pressure in all the patients and in the patients of hypertension alone are shown in Tables 12 and 13.
The change of the blood pressure in the patients of hypertension to whom a hypotensive agent was administrated in combination with TN is shown in Table 14, and the change of the blood pressure in the patients to whom no hypotensive agent was administrated in combination with TN is shown in Table 15.
In each of the foregoing Tables, N indicates the number of the patients, and S.D. denotes the standard deviation.

[5] = Clinical Experiment II: liver function test; type: in vivo, human patients; set-up: GOT, Average Value / GPT, Average Value / LDH, Average Value / ALP, Average Value: unit not given here
Experimental: as §1, §2

[6] = Clinical Experiment II: general improvement; type: in vivo, human patients
Experimental: as §1, §2
With respect to patients of hypertension alone, the general improvement was evaluated collectively based on subjective symptoms and clinical test data to obtain results shown in Table 23.

[7] = Clinical Experiment II: side effects; type: in vivo, human patients
Experimental: as §1, §2

Solubility = type: physicochemical
[8] = 2 weeks, N 34, TN 200 mg three times a day
[9] = 4 weeks, N 38, TN 200 mg three times a day
[10] = 6 weeks, N 20, TN 200 mg three times a day
[11] = before administration, N 43, all patients (Table 6)
[12] = conclusion of both clinical experiments

Cc1c(C)c2c(c(C)c1OC(=O)c1cccnc1)CCC(C)(CCCC(C)CCCC(C)CCCC(C)C)O2 (racemic) [TN, dl-α-tocopheryl nicotinate]
animals killed in acute toxicity test (Acute toxicity on rats): no test animal was killed | influences on mother animals, embryos and newborn babies [1]: no influences were observed | teratogenetic property [1]: no teratogenetic property | number of rats with blood pressure elevated to 170 mm Hg or higher ([2]; 20 mg/kg of TN once a day, among 10 rats (control 9 among 11)): 5 rats | effect on increase of the blood pressure ([2]; 100 mg/kg of TN): especially conspicuous | number of rats with blood pressure elevated to 170 mm Hg or higher ([2]; 100 mg/kg of TN once a day, among 12 rats (control 9 among 11)): 3 rats | hypotensive effect, overall conclusion from pharmacological tests on animals ([2]; DOCA rats, old SHR, young SHR): have a hypotensive effect | maximum blood pressure in patients of hypertension ([3]; 2, 4 or 6 weeks' administration): lowered by 2, 4 or 6 weeks' administration below the maximum blood pressure before the start of the administration | Maximum Blood Pressure in Hypertensives, Average Value ± S.D. ([3]; 2 weeks, N 28, P < 0.05 vs before): 143.8 ± 21.0 | Minimum Blood Pressure, Average Value±S.D. [3, 8]: 82.4±11.4 | Maximum Blood Pressure, Average Value±S.D. [3, 8]: 139.7±21.1 | Maximum Blood Pressure in Hypertensives, Average Value ± S.D. ([3]; 4 weeks, N 29, P < 0.02 vs before): 143.1 ± 21.1 | Minimum Blood Pressure, Average Value±S.D. [3, 9]: 80.6±10.3 | Maximum Blood Pressure, Average Value±S.D. [3, 9]: 140.0±20.3 | Maximum Blood Pressure in Hypertensives, Average Value ± S.D. ([3]; 6 weeks, N 13, P < 0.05 vs before): 139.2 ± 16.8 | Minimum Blood Pressure, Average Value±S.D. [3, 10]: 79.1±7.0 | Maximum Blood Pressure, Average Value±S.D. [3, 10]: 138.1±15.2 | patients in whom administration was interrupted ([3]; TN 200 mg three times a day, 4 or 6 weeks, P group 3 patients): 2 patients | Minimum Blood Pressure, Average Value±S.D. [3, 11]: 84.4±13.7 | Maximum Blood Pressure, Average Value±S.D. [3, 11]: 147.6±23.6 | Maximum Blood Pressure in Hypertensives, Average Value ± S.D. ([3]; before administration, same 13 patients as 6 weeks): 151.2 ± 28.9 | Maximum Blood Pressure in Hypertensives, Average Value ± S.D. ([3]; before administration, same 28 patients as 2 weeks): 151.0 ± 22.1 | Maximum Blood Pressure in Hypertensives, Average Value ± S.D. ([3]; before administration, same 29 patients as 4 weeks): 154.6 ± 24.8 | hypotensive effect as compared with the P group ([4]; Tables 12 to 15, hypertension alone significant at level lower than 5%): the hypotensive effect was attained in the TN administrated group as compared with the P group | Maximum Pressure, Average Value, all patients ([4]; after administration (200 mg TN 3 times per day, 4 weeks), N 35, S.D. ±23.65): 141.40 | Minimum Pressure, Average Value, patients of hypertension ([4]; after administration (4 weeks), N 22, S.D. ±13.08): 87.45 | Maximum Pressure, Average Value, patients of hypertension ([4]; after administration (4 weeks), N 22, S.D. ±20.69, P < 0.05): 148.59 | Minimum Pressure, Average Value, all patients ([4]; after administration (4 weeks), N 35, S.D. ±13.64): 81.89 | Minimum Pressure, Average Value, no hypotensive agent in combination with TN ([4]; after administration, N 8, S.D. ±13.34): 87.50 | Maximum Pressure, Average Value, no hypotensive agent in combination with TN ([4]; after administration, N 8, S.D. ±19.95, P < 0.1): 146.13 | Minimum Pressure, Average Value, hypotensive agent administered in combination with TN ([4]; after administration, N 14, S.D. ±13.44): 87.43 | Maximum Pressure, Average Value, hypotensive agent administered in combination with TN ([4]; after administration, N 14, S.D. ±21.71): 150.00 | Minimum Pressure, Average Value, no hypotensive agent in combination with TN ([4]; before administration, N 8, S.D. ±16.40): 87.75 | Maximum Pressure, Average Value, no hypotensive agent in combination with TN ([4]; before administration, N 8, S.D. ±22.60): 161.50 | Minimum Pressure, Average Value, hypotensive agent administered in combination with TN ([4]; before administration, N 14, S.D. ±10.75): 89.71 | Maximum Pressure, Average Value, hypotensive agent administered in combination with TN ([4]; before administration, N 14, S.D. ±17.29): 159.29 | Minimum Pressure, Average Value, patients of hypertension ([4]; before administration, N 22, S.D. ±12.74): 89.00 | Maximum Pressure, Average Value, patients of hypertension ([4]; before administration, N 22, S.D. ±18.88): 160.09 | Minimum Pressure, Average Value, all patients ([4]; before administration, N 38, S.D. ±14.78): 81.37 | Maximum Pressure, Average Value, all patients ([4]; before administration, N 38, S.D. ±25.14): 144.63 | efficacy and safety conclusion [4, 12]: very effective and safe hypotensive agent | hypotensive effect on patients of hypertension versus P group [4, 12]: higher in the TN administered group than in the P group | effect durability ([4]; general conclusion): high effect durability | variation of GOT, GPT, LDH and ALP ([5]; Table 16): the variation was within the normal region | GOT, Average Value ([5]; after administration, N 29, S.D. ±9.51): 24.90 | ALP, Average Value ([5]; after administration, N 30, S.D. ±2.21): 7.21 | GPT, Average Value ([5]; after administration, N 30, S.D. ±13.40): 18.73 | LDH, Average Value ([5]; after administration, N 30, S.D. ±53.94): 245.03 | ALP, Average Value ([5]; before administration, N 34, S.D. ±2.36): 7.37 | LDH, Average Value ([5]; before administration, N 36, S.D. ±72.42): 251.28 | GOT, Average Value ([5]; before administration, N 37, S.D. ±14.92): 28.59 | GPT, Average Value ([5]; before administration, N 37, S.D. ±19.46): 22.73 | tendency of reduction of GOT and GPT ([5]; versus P group): greater in the TN administered group than in the P group | General improvement: Improvement Ratio ([6]; P group 52.94, P < 0.05): 86.36% | general improvement versus P group ([6]; conclusion of both clinical experiments, significance lower than 0.5%): significantly excellent over that in the P group at a level of significance lower than 0.5% | general improvement versus P group ([6]; level of significance lower than 5%): excellent over that in the P group at a level of significance lower than 5% | General improvement: Not Changed ([6]; number of patients, total 22): 3 | General improvement: Partial Improvement ([6]; number of patients, total 22): 7 | General improvement: Remarkable Improvement ([6]; number of patients, total 22): 4 | General improvement: Slight Improvement ([6]; number of patients, total 22): 8 | General improvement: Worsened ([6]; number of patients, total 22): 0 | side effect: constipation ([7]; among 41 patients): another patient complained of constipation | side effect: light lack of appetite ([7]; among 41 patients): one | side effects in other patients ([7]; among 41 patients): no side effect was observed | side effects versus conventional hypotensive agents [7, 12]: much more reduced in TN than in conventional hypotensive agents | other various blood tests and the like: undesirable side effects ([7]; human, in vivo): None of results of other various blood tests and the like were suggestive of undesirable, side effects | solubility in organic solvents (Solubility): easily soluble in acetone, benzene, chloroform, ether and ethanol | solubility in water (Solubility): hardly soluble in water
